Measured values: patent US8916702B2 (priority 2012, dated 2014)

Tested on: HCV pseudoparticles (genotype 1a HCV E1 and E2 envelope, H77C isolate)
Test: microbe, parasite or virus in culture
Assay type: cell-based
Settings: Hepatitis C virus, Huh-7, 48 h, HCV pseudoparticle infection of Huh7 cells, luciferase 2 days after infection; average of duplicates

Row | SMILES | EC50
1 | C[C@]12C3C1[C@H]3C[C@H]2NC(=O)C(=O)NC[C@H](NC(=O)c1ccc(Nc2nc(NC3(c4ccc(Cl)cc4)CC3)nc(OCC(F)(F)F)n2)cc1)C(=O)O (some centres unmarked) [Compound 1084] | 0.26 nM
2 | COc1cccc(CNC(=O)C(=O)NC[C@H](NC(=O)c2ccc(Nc3nc(NC4(c5ccc(Cl)cc5)CC4)nc(OCC(F)(F)F)n3)cc2)C(=O)O)c1 [Compound 1193] | 0.52 nM
3 | COC(=O)[C@H](CNC(=O)C(=O)Nc1ccnc(OC)c1)NC(=O)c1ccc(Nc2nc(NC3(c4ccc(Cl)cc4)CC3)nc(OCC(F)(F)F)n2)cc1 [Compound 1241] | 0.99 nM

Same assay, conditions: Hepatitis C virus, Huh-7, 48 h, HCV pseudoparticles (genotype 1a, H77C) in Huh7 cells; average of duplicate; luciferase 2 days after infection

Row | SMILES | EC50
4 | O=C(NCC(O)CNC(=O)c1ccc(Nc2nc(NC3(c4ccc(Cl)cc4)CC3)nc(OCC(F)(F)F)n2)cc1)C(=O)Nc1cc(F)cc(F)c1 (centres unmarked) [Compound 3461] | 0.027 nM
5 | Cc1ccc(NC(=O)C(=O)NCC(C)(C)CNC(=O)c2ccc(Nc3nc(NC4(c5ccc(Cl)cc5)CC4)nc(OCC(F)(F)F)n3)cc2)c(C)c1 [Compound 3055] | 0.0095 nM
6 | COC(=O)/C(CCNC(=O)C(=O)Nc1ccc(-n2nnnc2C)cc1)=N\C(=O)c1ccc(Nc2nc(NC3(c4ccc(Cl)cc4)CC3)nc(OCC(F)(F)F)n2)cc1 [Compound 3135] | 3.69 nM

Same assay, conditions: Hepatitis C virus, Huh-7, 48 h, read-out: Activity (EC50 class), HCV pseudoparticle infection of Huh7 cells, luciferase 2 days after infection; EC50 expressed as class A/B

Row | SMILES | EC50
7 | CC1CCC(NC(=O)C(=O)NCC[C@H](NC(=O)c2ccc(Nc3nc(NC4(c5ccc(Cl)cc5)CC4)nc(OCC(F)(F)F)n3)cc2)C(=O)O)CC1 (some centres unmarked) [Compound 1129] | 0.01 to 10 nM
8 | C[C@]12C3C1[C@H]3C[C@H]2NC(=O)C(=O)NC[C@H](NC(=O)c1ccc(Nc2nc(NC3(c4ccc(Cl)cc4)CC3)nc(OCC(F)(F)F)n2)cc1)C(=O)O (some centres unmarked) [Compound 1084] | 0.01 to 10 nM
9 | O=C(NC[C@H](NC(=O)c1ccc(Nc2nc(NC3(c4ccc(Cl)cc4)CC3)nc(OCC(F)(F)F)n2)cc1)C(=O)O)C(=O)NC1(C2CCCCC2)CC1 [Compound 1472] | 0.01 to 10 nM
10 | COc1cccc(CNC(=O)C(=O)NC[C@H](NC(=O)c2ccc(Nc3nc(NC4(c5ccc(Cl)cc5)CC4)nc(OCC(F)(F)F)n3)cc2)C(=O)O)c1 [Compound 1193] | 0.01 to 10 nM
11 | COC(=O)[C@H](CNC(=O)C(=O)Nc1ccnc(OC)c1)NC(=O)c1ccc(Nc2nc(NC3(c4ccc(Cl)cc4)CC3)nc(OCC(F)(F)F)n2)cc1 [Compound 1241] | 0.01 to 10 nM
12 | COC(=O)[C@H](CCNC(=O)C(N)=O)NC(=O)c1ccc(Nc2nc(NC3(c4ccc(Cl)cc4)CC3)nc(OCC(F)(F)F)n2)cc1 [Compound 1009, (S)-methyl 4-(2-amino-2-oxoacetamido)-2-(4-(4-(1-(4-chlorophenyl)cyclopropylamino)-6-(2,2,2-trifluoroethoxy)-1,3,5-triazin-2-ylamino)benzamido)butanoate] | 0.01 to 10 nM
13 | COC(=O)[C@H](CCNC(=O)C(=O)NCCc1ccccn1)NC(=O)c1ccc(Nc2nc(NC3(c4ccc(Cl)cc4)CC3)nc(OCC(F)(F)F)n2)cc1 [Compound 1306] | 0.01 to 10 nM
14 | CCc1ccc(NC(=O)C(=O)NCC(C)(C)CNC(=O)c2ccc(Nc3nc(NC4(c5ccc(Cl)cc5)CC4)nc(OCC(F)(F)F)n3)cc2)cc1 [Compound 1583] | 0.01 to 10 nM
15 | CCc1ccnn1CC1(CNC(=O)C(=O)NCC[C@H](NC(=O)c2ccc(Nc3nc(NC4(c5ccc(Cl)cc5)CC4)nc(OCC(F)(F)F)n3)cc2)C(=O)O)CC1 [Compound 1430] | 0.01 to 10 nM
16 | COC(=O)[C@H](CCNC(=O)C(=O)NCC1CC1(Cl)Cl)NC(=O)c1ccc(Nc2nc(NC3(c4ccc(Cl)cc4)CC3)nc(OCC(F)(F)F)n2)cc1 (some centres unmarked) [Compound 1372] | 0.01 to 10 nM
17 | Cc1ccc(CNC(=O)C(=O)NCC[C@H](NC(=O)c2ccc(Nc3nc(NC4(c5ccc(Cl)cc5)CC4)nc(OCC(F)(F)F)n3)cc2)C(=O)O)cc1 [Compound 1185] | 0.01 to 10 nM
18 | COC(=O)[C@H](CNC(=O)C(=O)NCC1CCc2ccccc21)NC(=O)c1ccc(Nc2nc(NC3(c4ccc(Cl)cc4)CC3)nc(OCC(F)(F)F)n2)cc1 (some centres unmarked) [Compound 1303] | 0.01 to 10 nM
19 | O=C(NC[C@H](NC(=O)c1ccc(Nc2nc(NC3(c4ccc(Cl)cc4)CC3)nc(OCC(F)(F)F)n2)cc1)C(=O)O)C(=O)NC1CCCCCCC1 [Compound 1096] | 0.01 to 10 nM
20 | COC(=O)[C@H](CCNC(=O)C(=O)Nc1cccc(O)c1)NC(=O)c1ccc(Nc2nc(NC3(c4ccc(Cl)cc4)CC3)nc(OCC(F)(F)F)n2)cc1 [Compound 1521] | 0.01 to 10 nM
21 | O=C(NCCn1cccn1)C(=O)NC[C@H](NC(=O)c1ccc(Nc2nc(NC3(c4ccc(Cl)cc4)CC3)nc(OCC(F)(F)F)n2)cc1)C(=O)O [Compound 1411] | 0.01 to 10 nM

Same assay, conditions: Hepatitis C virus, Huh-7, 48 h, read-out: Activity (EC50 class), HCV pseudoparticles, Huh7 cells, luciferase 2 days after infection; average of duplicates

Row | SMILES | EC50
22 | CC(C)(CNC(=O)C(=O)Nc1ccc(CNC(N)=O)cc1)CNC(=O)c1ccc(Nc2nc(NC3(c4ccc(Cl)cc4)CC3)nc(OCC(F)(F)F)n2)cc1 [Compound 3671] | 0.01 to 10 nM
23 | COC(=O)[C@H](CNC(=O)C(=O)Nc1ccc(NC(C)=O)nc1)NC(=O)c1ccc(Nc2nc(NC3(c4ccc(Cl)cc4)CC3)nc(OCC(F)(F)F)n2)cc1 [Compound 3706] | 0.01 to 10 nM
24 | O=C(NC[C@H](NC(=O)c1ccc(Nc2nc(NC3(c4ccc(Cl)cc4)CC3)nc(OCC(F)(F)F)n2)cc1)C(=O)O)C(=O)Nc1cccc(S(=O)(=O)c2ccccc2)c1 [Compound 3757] | 0.01 to 10 nM
25 | Cc1cc(NC(=O)C(=O)NCC(C)(C)CNC(=O)c2ccc(Nc3nc(NC4(c5ccc(Cl)cc5)CC4)nc(OCC(F)(F)F)n3)cc2)[nH]n1 [Compound 3673] | 0.01 to 10 nM
26 | O=C(NC[C@H](NC(=O)c1ccc(Nc2nc(NC3(c4ccc(Cl)cc4)CC3)nc(OCC(F)(F)F)n2)cc1)C(=O)Cl)C(=O)Nc1cccc(-c2cccnc2)c1 [Compound 3783] | 0.01 to 10 nM
27 | COC(=O)[C@H](CNC(=O)C(=O)Nc1cccc(-c2csc(C)n2)c1)NC(=O)c1ccc(Nc2nc(NC3(c4ccc(Cl)cc4)CC3)nc(OCC(F)(F)F)n2)cc1 [Compound 3718] | 0.01 to 10 nM
28 | CS(=O)(=O)c1cccc(NC(=O)C(=O)NCC[C@H](NC(=O)c2ccc(Nc3nc(NC4(c5ccc(Cl)cc5)CC4)nc(OCC(F)(F)F)n3)cc2)C(=O)O)c1 [Compound 3632] | 0.01 to 10 nM
29 | COC(=O)[C@H](CNC(=O)C(=O)Nc1ccc(OCCN2CCCCC2)nc1)NC(=O)c1ccc(Nc2nc(NC3(c4ccc(Cl)cc4)CC3)nc(OCC(F)(F)F)n2)cc1 [Compound 3736] | 0.01 to 10 nM
30 | Cc1ccc(NC(=O)C(=O)NCC(C)(C)CNC(=O)c2ccc(Nc3nc(NC4(c5ccc(Cl)cc5)CC4)nc(OCc4ccc(C(C)(C)C)cc4)n3)cc2)cc1 [Compound 3841] | 0.01 to 10 nM

Same assay, conditions: Hepatitis C virus, Huh-7, read-out: Activity (EC50 class), HCV pseudoparticles (genotype 1a, H77C) in Huh7 cells; EC50 expressed as class A/B

Row | SMILES | EC50
31 | CC(C)(CNC(=O)C(=O)Nc1ccccc1C#N)CNC(=O)c1ccc(Nc2nc(NC3(c4ccc(Cl)cc4)CC3)nc(OCC(F)(F)F)n2)cc1 [Compound 3385] | 0.01 to 10 nM
32 | COC(=O)[C@H](CNC(=O)C(=O)Nc1ccc(-c2ccccc2)cc1)NC(=O)c1ccc(Nc2nc(NC3(c4ccc(Cl)cc4)CC3)nc(OCC(F)(F)F)n2)cc1 [Compound 3083] | 0.01 to 10 nM
33 | O=C(Nc1ccccc1)C(=O)N(CCO)CCCNC(=O)c1ccc(Nc2nc(NC3(c4ccc(Cl)cc4)CC3)nc(OCC(F)(F)F)n2)cc1 [Compound 3508] | 0.01 to 10 nM
34 | CC(C)(CNC(=O)C(=O)Nc1ccc(F)cc1Cl)CNC(=O)c1ccc(Nc2nc(NC3(c4ccc(Cl)cc4)CC3)nc(OCC(F)(F)F)n2)cc1 [Compound 3405] | 0.01 to 10 nM
35 | O=C(NCC(O)CNC(=O)c1ccc(Nc2nc(NC3(c4ccc(Cl)cc4)CC3)nc(OCC(F)(F)F)n2)cc1)C(=O)Nc1cc(F)cc(F)c1 (centres unmarked) [Compound 3461] | 0.01 to 10 nM
36 | Cc1cc(NC(=O)C(=O)NCCCCNC(=O)c2ccc(Nc3nc(NC4(c5ccc(Cl)cc5)CC4)nc(OCC(F)(F)F)n3)cc2)no1 [Compound 3394] | 0.01 to 10 nM
37 | COC(=O)/C(CCNC(=O)C(=O)Nc1cccc(-c2csc(C)n2)c1)=N\C(=O)c1ccc(Nc2nc(NC3(c4ccc(Cl)cc4)CC3)nc(OCC(F)(F)F)n2)cc1 [Compound 3596] | 0.01 to 10 nM
38 | CC(CNC(=O)C(=O)NC1CCCCC1)CNC(=O)c1ccc(Nc2nc(NC3(c4ccc(Cl)cc4)CC3)nc(OCC(F)(F)F)n2)cc1 (centres unmarked) [Compound 3472] | 0.01 to 10 nM
39 | CC(C)(CNC(=O)C(N)=O)CNC(=O)c1ccc(Nc2nc(NC3(c4ccc(Cl)cc4)CC3)nc(OCC(F)(F)F)n2)c(O)c1 [Compound 3478] | 0.01 to 10 nM
40 | NC(=O)C(=O)NCCCNC(=O)c1ccc(Nc2nc(NC3(c4ccc(Cl)cc4)CC3)nc(OCC(F)(F)F)n2)cc1 [Compound 3342] | 0.01 to 10 nM
41 | O=C(NCc1ccc(F)cc1)C(=O)N1CCCC(CNC(=O)c2ccc(Nc3nc(NC4(c5ccc(Cl)cc5)CC4)nc(OCC(F)(F)F)n3)cc2)C1 (centres unmarked) [Compound 3483] | 0.01 to 10 nM
42 | O=C(NC/C(=N/C(=O)c1ccc(Nc2nc(NC3(c4ccc(Cl)cc4)CC3)nc(OCC(F)(F)F)n2)cc1)C(=O)O)C(=O)Nc1ccc(Cl)cc1 [Compound 3149] | 0.01 to 10 nM
43 | O=C(Nc1cc(F)cc(F)c1)C(=O)N(CCO)CCCNC(=O)c1ccc(Nc2nc(NC3(c4ccc(Cl)cc4)CC3)nc(OCC(F)(F)F)n2)cc1 [Compound 3507] | 0.01 to 10 nM
44 | COC(=O)[C@H](CCNC(=O)C(=O)Nc1ccc(OCC(F)(F)F)cc1)NC(=O)c1ccc(Nc2nc(NC3(c4ccc(Cl)cc4)CC3)nc(OCC(F)(F)F)n2)cc1 [Compound 3125] | 0.01 to 10 nM
45 | Cc1ccc(NC(=O)C(=O)NCC(C)(C)CNC(=O)c2ccc(Nc3nc(NC4(c5ccc(Cl)cc5)CC4)nc(OCC(F)(F)F)n3)cc2)c(C)c1 [Compound 3055] | 0.01 to 10 nM
46 | O=C(NCC[C@H](NC(=O)c1ccc(Nc2nc(NC3(c4ccc(Cl)cc4)CC3)nc(OCC(F)(F)F)n2)cc1)C(=O)O)C(=O)Nc1ccc(-n2ccc(C(F)(F)F)n2)cc1 [Compound 3228] | 0.01 to 10 nM
47 | CC(C)(CNC(=O)C(=O)NCc1ccc(C(=N)N)cc1)CNC(=O)c1ccc(Nc2nc(NC3(c4ccc(Cl)cc4)CC3)nc(OCC(F)(F)F)n2)cc1 [Compound 3043] | 0.01 to 10 nM
48 | CN(CCCN(C)C(=O)c1ccc(Nc2nc(NC3(c4ccc(Cl)cc4)CC3)nc(OCC(F)(F)F)n2)cc1)C(=O)C(=O)Nc1cccc(F)c1 [Compound 3410] | 0.01 to 10 nM
49 | COC(=O)[C@H](CCNC(=O)C(=O)Nc1ccc(Oc2ccc(F)cc2)cc1)NC(=O)c1ccc(Nc2nc(NC3(c4ccc(Cl)cc4)CC3)nc(OCC(F)(F)F)n2)cc1 [Compound 3301] | 0.01 to 10 nM
50 | O=C(NCC[C@H](NC(=O)c1ccc(Nc2nc(NC3(c4ccc(Cl)cc4)CC3)nc(OCC(F)(F)F)n2)cc1)C(=O)O)C(=O)Nc1ccc(-n2cncn2)cc1 [Compound 3231] | 0.01 to 10 nM
51 | O=C(NC/C(=N/C(=O)c1ccc(Nc2nc(NC3(c4ccc(Cl)cc4)CC3)nc(OCC(F)(F)F)n2)cc1)C(=O)O)C(=O)Nc1ccc(Cc2ccncc2)cc1 [Compound 3162] | 0.01 to 10 nM
52 | O=C(NC[C@H](NC(=O)c1ccc(Nc2nc(NC3(c4ccc(Cl)cc4)CC3)nc(OCC(F)(F)F)n2)cc1)C(=O)O)C(=O)Nc1ccc(-c2ncco2)cc1 [Compound 3292] | 0.01 to 10 nM
53 | COC(=O)/C(CCNC(=O)C(=O)Nc1ccc(-n2nnnc2C)cc1)=N\C(=O)c1ccc(Nc2nc(NC3(c4ccc(Cl)cc4)CC3)nc(OCC(F)(F)F)n2)cc1 [Compound 3135] | 0.01 to 10 nM
